According to the supplement of paper PMC10307832:

How the values were obtained:
Test in all cases: relative viability (nuclei count vs DMSO), 5 days (fraction); higher = more cells survive
A-427 = tested on: A-427
Summary of the method: (§1)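 Relative viability is defined as nuclei in treated wells over nuclei in vehicle wells. Duplicate plates were run and medians reported. Lung cancer cell lines in 1536-well plates were dosed by pin tool one day after seeding, with one drug or with a fixed anchor-drug dose plus five library-drug doses (not always all listed) in √10 steps, and nuclei were counted after 5 days.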

COR-L 105 = tested on: COR-L 105
Summary of the method: as §1

EPLC-272H = tested on: EPLC-272H
Summary of the method: as §1

HCC-366 = tested on: HCC-366
Summary of the method: as §1

HCC-78 = tested on: HCC-78
Summary of the method: as §1

HOP-62 = tested on: HOP-62
Summary of the method: as §1

LC-2-ad = tested on: LC-2-ad
Summary of the method: as §1

LCLC-97TM1 = tested on: LCLC-97TM1
Summary of the method: as §1

LU99A = tested on: LU99A
Summary of the method: as §1

LXF-289 = tested on: LXF-289
Summary of the method: as §1

NCI-H1755 = tested on: NCI-H1755
Summary of the method: as §1

NCI-H1792 = tested on: NCI-H1792
Summary of the method: as §1

NCI-H1793 = tested on: NCI-H1793
Summary of the method: as §1

NCI-H1915 = tested on: NCI-H1915
Summary of the method: as §1

NCI-H1944 = tested on: NCI-H1944
Summary of the method: as §1

NCI-H1975 = tested on: NCI-H1975
Summary of the method: as §1

NCI-H2085 = tested on: NCI-H2085
Summary of the method: as §1

NCI-H2170 = tested on: NCI-H2170
Summary of the method: as §1

NCI-H358 = tested on: NCI-H358
Summary of the method: as §1

NCI-H460 = tested on: NCI-H460
Summary of the method: as §1

SK-LU-1 = tested on: SK-LU-1
Summary of the method: as §1

UMC-11 = tested on: UMC-11
Summary of the method: as §1

C=C1C(=O)O[C@@H](CCCCCCCC)[C@@H]1C(=O)O [C-75] + CS(=O)(=O)N1CCN(Cc2cc3nc(-c4cccc5[nH]ncc45)nc(N4CCOCC4)c3s2)CC1 [Pictilisib] (partner 1 µM)
relative viability (A-427; first compound 0.08 µM): 0.786 | relative viability (A-427; first compound 0.253 µM): 0.75 | relative viability (A-427; first compound 0.8 µM): 0.626 | relative viability (A-427; first compound 2.53 µM): 0.62 | relative viability (A-427; first compound 8 µM): 0.718 | relative viability (COR-L 105; first compound 0.08 µM): 0.437 | relative viability (COR-L 105; first compound 0.253 µM): 0.422 | relative viability (COR-L 105; first compound 0.8 µM): 0.469 | relative viability (COR-L 105; first compound 2.53 µM): 0.432 | relative viability (COR-L 105; first compound 8 µM): 0.343 | relative viability (EPLC-272H; first compound 0.08 µM): 0.336 | relative viability (EPLC-272H; first compound 0.253 µM): 0.308 | relative viability (EPLC-272H; first compound 0.8 µM): 0.298 | relative viability (EPLC-272H; first compound 2.53 µM): 0.265 | relative viability (EPLC-272H; first compound 8 µM): 0.232 | relative viability (HCC-366; first compound 0.08 µM): 0.238 | relative viability (HCC-366; first compound 0.253 µM): 0.165 | relative viability (HCC-366; first compound 0.8 µM): 0.152 | relative viability (HCC-366; first compound 2.53 µM): 0.264 | relative viability (HCC-366; first compound 8 µM): 0.148 | relative viability (HCC-78; first compound 0.08 µM): 0.216 | relative viability (HCC-78; first compound 0.253 µM): 0.217 | relative viability (HCC-78; first compound 0.8 µM): 0.206 | relative viability (HCC-78; first compound 2.53 µM): 0.198 | relative viability (HCC-78; first compound 8 µM): 0.22 | relative viability (HOP-62; first compound 0.08 µM): 0.732 | relative viability (HOP-62; first compound 0.253 µM): 0.927 | relative viability (HOP-62; first compound 0.8 µM): 0.788 | relative viability (HOP-62; first compound 2.53 µM): 0.73 | relative viability (HOP-62; first compound 8 µM): 0.545 | relative viability (LC-2-ad; first compound 0.08 µM): 0.556 | relative viability (LC-2-ad; first compound 0.253 µM): 0.528 | relative viability (LC-2-ad; first compound 0.8 µM): 0.457 | relative viability (LC-2-ad; first compound 8 µM): 0.442 | relative viability (LCLC-97TM1; first compound 0.08 µM): 0.234 | relative viability (LCLC-97TM1; first compound 0.253 µM): 0.215 | relative viability (LCLC-97TM1; first compound 0.8 µM): 0.265 | relative viability (LCLC-97TM1; first compound 2.53 µM): 0.187 | relative viability (LCLC-97TM1; first compound 8 µM): 0.18 | relative viability (LU99A; first compound 0.08 µM): 0.281 | relative viability (LU99A; first compound 0.253 µM): 0.306 | relative viability (LU99A; first compound 0.8 µM): 0.305 | relative viability (LU99A; first compound 2.53 µM): 0.286 | relative viability (LU99A; first compound 8 µM): 0.307 | relative viability (LXF-289; first compound 0.08 µM): 0.77 | relative viability (LXF-289; first compound 0.253 µM): 0.836 | relative viability (LXF-289; first compound 0.8 µM): 0.76 | relative viability (LXF-289; first compound 2.53 µM): 0.771 | relative viability (LXF-289; first compound 8 µM): 0.73 | relative viability (NCI-H1755; first compound 0.08 µM): 0.461 | relative viability (NCI-H1755; first compound 0.253 µM): 0.448 | relative viability (NCI-H1755; first compound 0.8 µM): 0.389 | relative viability (NCI-H1755; first compound 2.53 µM): 0.339 | relative viability (NCI-H1755; first compound 8 µM): 0.402 | relative viability (NCI-H1792; first compound 0.08 µM): 0.312 | relative viability (NCI-H1792; first compound 0.253 µM): 0.268 | relative viability (NCI-H1792; first compound 0.8 µM): 0.293 | relative viability (NCI-H1792; first compound 2.53 µM): 0.261 | relative viability (NCI-H1792; first compound 8 µM): 0.343 | relative viability (NCI-H1793; first compound 0.08 µM): 0.339 | relative viability (NCI-H1793; first compound 0.253 µM): 0.359 | relative viability (NCI-H1793; first compound 0.8 µM): 0.324 | relative viability (NCI-H1793; first compound 2.53 µM): 0.215 | relative viability (NCI-H1793; first compound 8 µM): 0.372 | relative viability (NCI-H1915; first compound 0.08 µM): 0.953 | relative viability (NCI-H1915; first compound 0.253 µM): 1.08 | relative viability (NCI-H1915; first compound 0.8 µM): 0.857 | relative viability (NCI-H1915; first compound 2.53 µM): 0.828 | relative viability (NCI-H1915; first compound 8 µM): 0.763 | relative viability (NCI-H1944; first compound 0.08 µM): 0.346 | relative viability (NCI-H1944; first compound 0.253 µM): 0.34 | relative viability (NCI-H1944; first compound 0.8 µM): 0.33 | relative viability (NCI-H1944; first compound 8 µM): 0.342 | relative viability (NCI-H1975; first compound 0.08 µM): 0.286 | relative viability (NCI-H1975; first compound 0.253 µM): 0.282 | relative viability (NCI-H1975; first compound 0.8 µM): 0.278 | relative viability (NCI-H1975; first compound 2.53 µM): 0.326 | relative viability (NCI-H1975; first compound 8 µM): 0.347 | relative viability (NCI-H2085; first compound 0.08 µM): 0.504 | relative viability (NCI-H2085; first compound 0.253 µM): 0.543 | relative viability (NCI-H2085; first compound 0.8 µM): 0.433 | relative viability (NCI-H2085; first compound 2.53 µM): 0.339 | relative viability (NCI-H2085; first compound 8 µM): 0.413 | relative viability (NCI-H2170; first compound 0.08 µM): 0.355 | relative viability (NCI-H2170; first compound 0.253 µM): 0.299 | relative viability (NCI-H2170; first compound 0.8 µM): 0.318 | relative viability (NCI-H2170; first compound 2.53 µM): 0.274 | relative viability (NCI-H2170; first compound 8 µM): 0.272 | relative viability (NCI-H358; first compound 0.08 µM): 0.365 | relative viability (NCI-H358; first compound 0.253 µM): 0.348 | relative viability (NCI-H358; first compound 0.8 µM): 0.312 | relative viability (NCI-H358; first compound 2.53 µM): 0.326 | relative viability (NCI-H358; first compound 8 µM): 0.361 | relative viability (NCI-H460; first compound 0.08 µM): 0.396 | relative viability (NCI-H460; first compound 0.253 µM): 0.472 | relative viability (NCI-H460; first compound 0.8 µM): 0.303 | relative viability (NCI-H460; first compound 8 µM): 0.348 | relative viability (SK-LU-1; first compound 0.08 µM): 0.568 | relative viability (SK-LU-1; first compound 0.253 µM): 0.638 | relative viability (SK-LU-1; first compound 0.8 µM): 0.588 | relative viability (SK-LU-1; first compound 2.53 µM): 0.574 | relative viability (SK-LU-1; first compound 8 µM): 0.362 | relative viability (UMC-11; first compound 0.08 µM): 0.74 | relative viability (UMC-11; first compound 0.253 µM): 0.899 | relative viability (UMC-11; first compound 0.8 µM): 0.704 | relative viability (UMC-11; first compound 2.53 µM): 0.702 | relative viability (UMC-11; first compound 8 µM): 0.75
